# How the values were obtained:
# [1] = system: tobacco plants expressing HPPD SEQ ID NO:14; assay: herbicide spray test on transgenic tobacco; format: in vivo; conditions: 13 DAT
# [2] = system: G408A mutant of HPPD SEQ ID NO:14; assay: time course of inhibition of enzyme activity; format: biochemical, Avena sativa
# [3] = system: tobacco plants expressing HPPD SEQ ID NO:24; assay: herbicide spray test on transgenic tobacco; format: in vivo; conditions: 13 DAT
# HPPD SEQ ID NO:26 = assay: biochemical; format: binding, Avena sativa; conditions: off rate, FIGS. 4A-4C
# Experimental: On rates (governed by an association rate constant, kon) for the formation of the enzyme: inhibitor complexes, EI and off rates (governed by a dissociation rate constant, koff) were determined by methods known in the art and essentially as described in Hawkes et al. (2001) Proc. Bright. Crop. Prot. Conf. Weeds, 2:563-568 and in PCT Patent App. Pub. No. WO 02/46387).
# For example, on rates were measured by, at zero time, adding ˜60 pmoles HPPD to 50 mM BisTrisPropane buffer at pH7.0 and at 25° C. containing 25 mM Na ascorbate, 4 μg/ml bovine catalase (Sigma, St. Louis, Mo.) and an excess (˜300 pmoles) of ^14C inhibitor in a total assay volume of 425 μl and, at various time points (0-180 s), quenching the radiolabel binding reaction by addition and rapid mixing of 100 μl ‘cold’ 1 mM structure A. Protein samples quenched at different times were then exchanged into 50 mM BisTrisPropane buffer at pH 7.0 containing 0.1M KCl by rapid chromatography down a NAP5 G25 Sephadex column (GE Healthcare Ltd, Buckinghamshire UK) and the amount of ^14C bound to protein fractions quantified in Optiphase scintillant using a Tri-Carb 2900TR scintillation counter (Perkin Elmer, Wellesley, Mass.). The data were fit according to the scheme below in order to derive the value of the apparent second order rate constant, k2, governing the association rate of enzyme and radiolabelled inhibitor. […]
# [4] = system: control SEQ ID NO:14 HPPD; assay: time course of inhibition of enzyme activity, control enzyme; format: biochemical, Avena sativa; conditions: artifact of the method due to fast off rate during the 150 s assay
# [5] = system: soybean event SF (vector 17147) expressing SEQ ID NO:24; assay: herbicide spray test on soybean events; format: in vivo; conditions: event SF/SEQ#24, V2 growth stage, 14 DAT, average of n=7
# From the text: (§1) Each data point represents the average damage score from n=7 replicates.
# (§2) These events were used to compare the performance of five 17147 events. Four of these, SF, S8, S7 and S3 had not been preselected for tolerance level (other than to confirm resistance, non-chimerical nature and the presence of the gene) while the remaining event, T0, had been preselected as the most resistant out of five 17147 events in a preliminary field test.
# (§3) Plants were in 4×4×4 inch plastic pots and grown under a 15/9 hour light regime (daylight supplemented by artificial light in greenhouses) at a minimum night-time temperature of 18° C. and maximum daytime temperature of 27° C. Soil was regular VBRC mix (1:1 mixture of Vero field soil and Fafard Mix II) where Vero field soil is 98% sand and 2% clay. […] Spray volume was 150 L/ha and the damage scores reflect assessments at 14 DAT.
# [6] = system: soybean event S8 (vector 17147) expressing SEQ ID NO:24; assay: herbicide spray test on soybean events; format: in vivo; conditions: event S8/SEQ#24, V2 growth stage, 14 DAT, average of n=7
# From the text: as §1, §2, §3
# [7] = system: soybean event S3 (vector 17147) expressing SEQ ID NO:24; assay: herbicide spray test on soybean events; format: in vivo; conditions: event S3/SEQ#24, V2 growth stage, 14 DAT, average of n=7
# From the text: as §1, §2, §3
# [8] = system: soybean event T0 (vector 17147) expressing SEQ ID NO:24; assay: herbicide spray test on soybean events; format: in vivo; conditions: event T0/SEQ#24, V2 growth stage, 14 DAT, average of n=7
# From the text: as §1, §2, §3
# [9] = system: soybean event 2 (vector 15764) expressing SEQ ID NO:14; assay: herbicide spray test on soybean events; format: in vivo; conditions: event 2/SEQ#14, V2 growth stage, 14 DAT, average of n=7
# From the text: as §1, §2, §3
# [10] = system: soybean event S7 (vector 17147) expressing SEQ ID NO:24; assay: herbicide spray test on soybean events; format: in vivo; conditions: event S7/SEQ#24, V2 growth stage, 14 DAT, average of n=7
# From the text: as §1, §2, §3
# [11] = system: soybean event 1 (vector 15764) expressing SEQ ID NO:14; assay: herbicide spray test on soybean events; format: in vivo; conditions: event 1/SEQ#14, V2 growth stage, 14 DAT, average of n=7
# From the text: as §1, §2, §3
# Jack w/t = assay: herbicide spray test on soybean; format: in vivo; conditions: V2 growth stage, 14 DAT, average of n=7
# Experimental: as §1, §3
# [12] = system: E. coli BL21 cells expressing HPPD SEQ ID NO:24; format: cell-based; conditions: 20 ppm sulcotrione (data not shown)
# Experimental: (§4) Cells were grown from a 10% starting inoculum into 0.5 ml of L-broth containing 50 μg of kanamycin ml^−1 in […] for 48-96 h at 15° C. Typically pyomelanin colour in the medium was read (at 430 nm) after ˜72 h.
# [13] = system: E. coli cells expressing mutant G408A; conditions: 25 ppm sulcotrione
# Experimental: as §4
# [14] = 300 g/ha, smaller-sized population
# [15] = 500 g/ha, larger-sized population
compound,measurement,setting,value
"CS(=O)(=O)c1ccc(C(=O)C2C(=O)CCCC2=O)c([N+](=O)[O-])c1 [Structure B, mesotrione]",plants exhibiting visible herbicide damage (number of plants),[1]; [14],4 of 26
same,plants exhibiting damage,[1]; [15],27%
same,residual activity,"[2]; 0.6 μM B, enzyme about 75 nM, incubation up to 260 s, inhibition levelled off",about 35%
same,radiochemically determined off rate compared with control SEQ ID NO:14 HPPD,[2]; ice temperature,indistinguishable
same,extent of inhibition compared with the control enzyme,[2]; inhibitor at 0.15 or 0.6 μM,to a lesser extent
same,plants exhibiting visible herbicide damage (number of plants),[3]; [14],2 of 28
same,plants exhibiting symptoms of herbicide damage,[3]; [15],10%
same,plants exhibiting symptoms of herbicide damage (number of plants),[3]; [15],4 of 38
same,dissociation from HPPD SEQ ID NO:26 compared with HPPD SEQ ID NO:24,HPPD SEQ ID NO:26,about twice as fast
same,residual activity,[4],~8%
same,% dam.,[5]; B 420 g/ha,15.7%
same,% dam.,[5]; B 840 g/ha,25%
same,% dam.,[6]; B 420 g/ha,18.6%
same,% dam.,[6]; B 840 g/ha,19.3%
same,% dam.,[7]; B 420 g/ha,15.3%
same,% dam.,[7]; B 840 g/ha,15.3%
same,% dam.,[8]; B 420 g/ha,8.3%
same,% dam.,[8]; B 840 g/ha,5.3%
same,% dam.,[9]; B 420 g/ha,20.7%
same,% dam.,[9]; B 840 g/ha,22.1%
same,% dam.,[10]; B 420 g/ha,10.6%
same,% dam.,[10]; B 840 g/ha,6.9%
same,% dam.,[11]; B 420 g/ha,11.4%
same,% dam.,[11]; B 840 g/ha,9.3%
same,% dam.,Jack w/t; B 420 g/ha,82.9%
same,% dam.,Jack w/t; B 840 g/ha,83.6%
"CS(=O)(=O)c1ccc(C(=O)C2C(=O)CCCC2=O)c(Cl)c1 [sulc, sulcotrione]",tolerance in pyomelanin assay,[12],enhanced tolerance
same,resistance in pyomelanin assay,[13],resistance relative to HPPD SEQ ID NO:14

# From patent publication US9175305B2, “Mutant hydroxyphenylpyruvate dioxygenase polypeptides and methods of use” (Syngenta Participations AG, priority 2009, dated 2015)
